Data set [1] can be described thus: Dasatinib solubility in selected solvents with or without acid doping (by HPLC). As to conditions: organic solvent or mixture.
The nature of data set [2]: Drug recovery during in vitro release experiments. The following applies: after 4 hr incubation at 37° C. It counts as physicochemical. The text has this: Release data of 24 hr and 48 hr, in Table 4, are underlined because the drug recovered at these two time points show significant degradation (data are shown in the bottom of the table in the Drug Recovery section).

Values after ≈ are worked out from the molar mass of the structure shown.

The solubility is how much of the substance goes into solution per volume.

`Cc1nc(Nc2ncc(C(=O)Nc3c(C)cccc3Cl)s2)cc(N2CCN(CCO)CC2)n1` [Dasatinib, dasatinib]: the solubility in data set [1] (1% TFA in benzyl alcohol) is 56.5 mg/mL (≈ 116 mM); in data set [1] (2% TFA in benzyl alcohol) it was 103 mg/mL (≈ 211 mM); in data set [1] (3% TFA in 7.5% water in benzyl alcohol), 157 mg/mL (≈ 322 mM); in data set [1] (3% TFA in benzyl alcohol), 141 mg/mL (≈ 289 mM); in data set [1] (7.5% water in benzyl alcohol) it was 32.8 mg/mL (≈ 67.1 mM). In data set [2], the “stability of dasatinib during incubation” value is “degradation of dasatinib is observed”.
